Values quoted from earlier work in patent publication US20050191370A1, “Vitamin/metal salt compositions for reducing hair loss and/or promoting hair regrowth” (L'OREAL, priority 2000, published 2005).

Test system: lung cancers in smokers

## CC1=C(/C=C/C(C)=C/C=C/C(C)=C/C=C/C=C(C)/C=C/C=C(C)/C=C/C2=C(C)CCCC2(C)C)C(C)(C)CCC1 [beta-carotene]
After 5 years of administration
  decrease in the incidence of lung cancers: No decrease
Men who received beta-carotene, population of 29,139 men who were smokers
  additional deaths: 8%
Men who received beta-carotene, population of 29,139 men who were smokers, Finland
  increase in lung cancers: 18%
